Reference: ChEMBL document CHEMBL5723584 (2023)

Assays:
[1] = target: Homeodomain-interacting protein kinase 4 (Homo sapiens, UniProt Q8NE63); experiment: Promega NanoBRET (HIPK4)
[2] = target: Activin receptor type-1 (Homo sapiens) (UniProt Q04771); experiment: activity of ALK2(h) at 1.0 µM in the Eurofins Kinase panel; conditions: Compound concentration 1.0 uM
[3] = target: Tyrosine-protein kinase ABL2 (Homo sapiens) (UniProt P42684); experiment: activity of Arg(h) at 1.0 µM in the Eurofins Kinase panel; conditions: Compound concentration 1.0 uM
[4] = target: Mitogen-activated protein kinase kinase kinase 5 (Homo sapiens) (UniProt Q99683); experiment: activity of ASK1(h) at 1.0 µM in the Eurofins Kinase panel; conditions: Compound concentration 1.0 uM
[5] = target: Serine/threonine-protein kinase BRSK2 (Homo sapiens) (UniProt Q8IWQ3); experiment: activity of BrSK2(h) at 1.0 µM in the Eurofins Kinase panel; conditions: Compound concentration 1.0 uM
[6] = target: Calcium/calmodulin-dependent protein kinase type II subunit delta (Homo sapiens) (UniProt Q13557); experiment: activity of CaMKIIdelta(h) at 1.0 µM in the Eurofins Kinase panel; conditions: Compound concentration 1.0 uM
[7] = target: Cyclin-dependent kinase 14/Cyclin-Y (Homo sapiens) (UniProt O94921+Q8ND76); experiment: activity of CDK14/cyclinY(h) at 1.0 µM in the Eurofins Kinase panel; assay type: protein-complex assay; conditions: Compound concentration 1.0 uM
[8] = target: Cyclin-dependent kinase 2/cyclin A (Homo sapiens) (UniProt P24941+P20248+P78396); experiment: activity of CDK2/cyclinA(h) at 1.0 µM in the Eurofins Kinase panel; assay type: protein-complex assay; conditions: Compound concentration 1.0 uM
[9] = target: Serine/threonine-protein kinase Chk2 (Homo sapiens) (UniProt O96017); experiment: activity of CHK2(h) at 1.0 µM in the Eurofins Kinase panel; conditions: Compound concentration 1.0 uM
[10] = target: Ephrin type-A receptor 2 (Homo sapiens) (UniProt P29317); experiment: activity of EphA2(h) at 1.0 µM in the Eurofins Kinase panel; conditions: Compound concentration 1.0 uM
[11] = target: Fibroblast growth factor receptor 1 (Homo sapiens) (UniProt P11362); experiment: activity of FGFR1(h) at 1.0 µM in the Eurofins Kinase panel; conditions: Compound concentration 1.0 uM
[12] = target: Fibroblast growth factor receptor 4 (Homo sapiens) (UniProt P22455); experiment: activity of FGFR4(h) at 1.0 µM in the Eurofins Kinase panel; conditions: Compound concentration 1.0 uM
[13] = target: Insulin-like growth factor 1 receptor (Homo sapiens) (UniProt P08069); experiment: activity of IGF-1R(h), activated at 1.0 µM in the Eurofins Kinase panel; conditions: Compound concentration 1.0 uM
[14] = target: Tyrosine-protein kinase JAK2 (Homo sapiens) (UniProt O60674); experiment: activity of JAK2(h) at 1.0 µM in the Eurofins Kinase panel; conditions: Compound concentration 1.0 uM
[15] = target: LIM domain kinase 1 (Homo sapiens) (UniProt P53667); experiment: activity of LIMK1(h) at 1.0 µM in the Eurofins Kinase panel; conditions: Compound concentration 1.0 uM
[16] = target: LIM domain kinase 2 (Homo sapiens) (UniProt P53671); experiment: activity of LIMK2(h) at 1.0 µM in the Eurofins Kinase panel; conditions: Compound concentration 1.0 uM
[17] = target: Tyrosine-protein kinase Mer (Homo sapiens) (UniProt Q12866); experiment: activity of Mer(h) at 1.0 µM in the Eurofins Kinase panel; conditions: Compound concentration 1.0 uM
[18] = target: [Pyruvate dehydrogenase (acetyl-transferring)] kinase isozyme 2, mitochondrial (Homo sapiens) (UniProt Q15119); experiment: activity of PDHK2(h) at 1.0 µM in the Eurofins Kinase panel; conditions: Compound concentration 1.0 uM
[19] = target: Receptor-interacting serine/threonine-protein kinase 2 (Homo sapiens) (UniProt O43353); experiment: activity of RIPK2(h) at 1.0 µM in the Eurofins Kinase panel; conditions: Compound concentration 1.0 uM
[20] = target: Rho-associated protein kinase 1 (Homo sapiens) (UniProt Q13464); experiment: activity of ROCK-I(h) at 1.0 µM in the Eurofins Kinase panel; conditions: Compound concentration 1.0 uM
[21] = target: Macrophage-stimulating protein receptor (Homo sapiens) (UniProt Q04912); experiment: activity of Ron(h) at 1.0 µM in the Eurofins Kinase panel; conditions: Compound concentration 1.0 uM
[22] = target: SRSF protein kinase 2 (Homo sapiens) (UniProt P78362); experiment: activity of SRPK2(h) at 1.0 µM in the Eurofins Kinase panel; conditions: Compound concentration 1.0 uM
[23] = target: Tribbles homolog 2 (Homo sapiens) (UniProt Q92519); experiment: activity of TRB2(h) at 1.0 µM in the Eurofins Kinase panel; conditions: Compound concentration 1.0 uM
[24] = target: Serine/threonine-protein kinase ULK2 (Homo sapiens) (UniProt Q8IYT8); experiment: activity of ULK2(h) at 1.0 µM in the Eurofins Kinase panel; conditions: Compound concentration 1.0 uM
[25] = target: Serine/threonine-protein kinase VRK1 (Homo sapiens) (UniProt Q99986); experiment: activity of VRK1(h) at 1.0 µM in the Eurofins Kinase panel; conditions: Compound concentration 1.0 uM
[26] = target: Wee1-like protein kinase (Homo sapiens) (UniProt P30291); experiment: activity of Wee1(h) at 1.0 µM in the Eurofins Kinase panel; conditions: Compound concentration 1.0 uM
Sequence of Wee1-like protein kinase (Homo sapiens) (P30291 whole entry, looked up): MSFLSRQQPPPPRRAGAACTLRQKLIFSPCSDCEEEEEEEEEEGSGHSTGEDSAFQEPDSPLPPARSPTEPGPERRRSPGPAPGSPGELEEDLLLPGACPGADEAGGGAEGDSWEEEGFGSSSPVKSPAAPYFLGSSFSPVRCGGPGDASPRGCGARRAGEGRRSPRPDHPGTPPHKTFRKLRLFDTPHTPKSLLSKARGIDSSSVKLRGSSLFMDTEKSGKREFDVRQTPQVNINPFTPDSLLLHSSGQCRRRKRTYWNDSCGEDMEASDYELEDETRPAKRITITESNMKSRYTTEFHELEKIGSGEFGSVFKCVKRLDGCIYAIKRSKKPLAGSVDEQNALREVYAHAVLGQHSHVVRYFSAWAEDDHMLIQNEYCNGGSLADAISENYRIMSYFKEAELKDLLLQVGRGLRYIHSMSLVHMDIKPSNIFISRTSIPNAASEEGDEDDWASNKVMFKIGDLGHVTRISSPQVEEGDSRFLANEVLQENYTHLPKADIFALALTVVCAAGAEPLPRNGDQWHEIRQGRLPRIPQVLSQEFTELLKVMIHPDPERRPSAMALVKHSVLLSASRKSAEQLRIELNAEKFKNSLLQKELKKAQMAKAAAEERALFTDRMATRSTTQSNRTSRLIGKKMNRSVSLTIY

Sequence of SRSF protein kinase 2 (Homo sapiens) (P78362 whole entry, looked up): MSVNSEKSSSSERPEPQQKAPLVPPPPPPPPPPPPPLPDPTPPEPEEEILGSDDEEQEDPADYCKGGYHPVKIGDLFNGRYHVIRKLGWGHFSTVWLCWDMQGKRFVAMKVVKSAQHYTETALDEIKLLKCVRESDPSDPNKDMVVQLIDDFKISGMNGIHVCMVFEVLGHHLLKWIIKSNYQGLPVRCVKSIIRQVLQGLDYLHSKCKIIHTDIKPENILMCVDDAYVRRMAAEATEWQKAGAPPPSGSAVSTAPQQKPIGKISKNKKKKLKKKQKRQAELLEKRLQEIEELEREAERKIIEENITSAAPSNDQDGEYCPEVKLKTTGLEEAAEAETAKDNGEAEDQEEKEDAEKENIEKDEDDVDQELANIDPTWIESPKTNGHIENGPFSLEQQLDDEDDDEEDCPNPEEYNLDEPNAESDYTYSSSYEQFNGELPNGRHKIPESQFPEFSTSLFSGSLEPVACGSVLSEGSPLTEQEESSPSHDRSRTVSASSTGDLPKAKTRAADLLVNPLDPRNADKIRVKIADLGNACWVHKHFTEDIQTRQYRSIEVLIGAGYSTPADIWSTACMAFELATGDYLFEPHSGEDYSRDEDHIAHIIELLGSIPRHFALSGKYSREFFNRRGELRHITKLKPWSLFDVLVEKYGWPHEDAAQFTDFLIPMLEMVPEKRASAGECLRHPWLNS
Sequence of Tyrosine-protein kinase ABL2 (Homo sapiens) (P42684 whole entry): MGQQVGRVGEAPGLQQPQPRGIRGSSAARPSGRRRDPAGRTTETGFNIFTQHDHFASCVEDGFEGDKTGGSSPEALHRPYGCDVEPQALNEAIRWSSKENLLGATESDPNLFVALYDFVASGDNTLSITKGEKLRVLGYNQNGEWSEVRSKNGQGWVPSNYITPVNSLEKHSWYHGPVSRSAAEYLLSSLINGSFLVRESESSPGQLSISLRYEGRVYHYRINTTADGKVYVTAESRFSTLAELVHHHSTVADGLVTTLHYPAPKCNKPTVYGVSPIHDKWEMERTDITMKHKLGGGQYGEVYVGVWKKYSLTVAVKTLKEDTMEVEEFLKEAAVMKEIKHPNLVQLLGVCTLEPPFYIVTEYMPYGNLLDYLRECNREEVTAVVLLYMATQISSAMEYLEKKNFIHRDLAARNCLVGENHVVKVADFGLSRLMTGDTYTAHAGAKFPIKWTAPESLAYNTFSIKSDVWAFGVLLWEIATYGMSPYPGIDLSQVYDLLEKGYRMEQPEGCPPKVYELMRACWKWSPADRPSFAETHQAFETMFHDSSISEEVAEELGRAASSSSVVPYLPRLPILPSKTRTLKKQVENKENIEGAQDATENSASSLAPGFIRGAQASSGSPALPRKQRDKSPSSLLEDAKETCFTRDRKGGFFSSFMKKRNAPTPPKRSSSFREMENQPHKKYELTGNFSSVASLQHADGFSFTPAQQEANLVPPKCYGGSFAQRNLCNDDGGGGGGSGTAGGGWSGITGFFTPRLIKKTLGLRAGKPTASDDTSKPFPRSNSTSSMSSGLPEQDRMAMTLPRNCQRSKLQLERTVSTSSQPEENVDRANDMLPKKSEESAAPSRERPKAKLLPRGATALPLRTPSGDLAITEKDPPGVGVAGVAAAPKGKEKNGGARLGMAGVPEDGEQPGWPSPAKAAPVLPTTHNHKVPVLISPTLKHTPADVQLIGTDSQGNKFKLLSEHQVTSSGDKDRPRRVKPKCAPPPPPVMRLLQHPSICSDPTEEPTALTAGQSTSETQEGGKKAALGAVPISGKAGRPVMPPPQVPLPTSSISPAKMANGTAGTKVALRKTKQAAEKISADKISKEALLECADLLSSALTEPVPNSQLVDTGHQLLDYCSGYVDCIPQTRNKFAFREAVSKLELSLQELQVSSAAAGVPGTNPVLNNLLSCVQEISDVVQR
Sequence of LIM domain kinase 2 (Homo sapiens) (P53671 whole entry, looked up, the tested form may be a part): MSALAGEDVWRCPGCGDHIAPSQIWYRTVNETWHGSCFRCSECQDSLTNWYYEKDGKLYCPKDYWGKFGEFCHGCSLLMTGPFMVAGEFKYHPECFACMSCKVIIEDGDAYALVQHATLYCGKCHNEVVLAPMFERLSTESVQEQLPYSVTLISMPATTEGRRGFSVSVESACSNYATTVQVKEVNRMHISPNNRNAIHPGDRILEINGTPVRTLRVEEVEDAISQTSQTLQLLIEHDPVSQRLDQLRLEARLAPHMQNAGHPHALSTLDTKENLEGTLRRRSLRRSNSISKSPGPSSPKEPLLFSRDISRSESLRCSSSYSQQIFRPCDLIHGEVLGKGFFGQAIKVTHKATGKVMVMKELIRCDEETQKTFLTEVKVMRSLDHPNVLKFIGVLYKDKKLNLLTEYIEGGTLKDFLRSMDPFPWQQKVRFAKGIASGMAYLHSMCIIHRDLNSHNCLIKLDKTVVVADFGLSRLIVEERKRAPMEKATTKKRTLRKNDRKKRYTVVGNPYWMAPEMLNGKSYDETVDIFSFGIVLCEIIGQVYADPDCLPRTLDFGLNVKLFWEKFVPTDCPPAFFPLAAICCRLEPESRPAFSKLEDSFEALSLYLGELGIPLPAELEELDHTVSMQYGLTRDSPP
Sequence of LIM domain kinase 1 (Homo sapiens) (P53667 whole entry, looked up, the tested form may be a part): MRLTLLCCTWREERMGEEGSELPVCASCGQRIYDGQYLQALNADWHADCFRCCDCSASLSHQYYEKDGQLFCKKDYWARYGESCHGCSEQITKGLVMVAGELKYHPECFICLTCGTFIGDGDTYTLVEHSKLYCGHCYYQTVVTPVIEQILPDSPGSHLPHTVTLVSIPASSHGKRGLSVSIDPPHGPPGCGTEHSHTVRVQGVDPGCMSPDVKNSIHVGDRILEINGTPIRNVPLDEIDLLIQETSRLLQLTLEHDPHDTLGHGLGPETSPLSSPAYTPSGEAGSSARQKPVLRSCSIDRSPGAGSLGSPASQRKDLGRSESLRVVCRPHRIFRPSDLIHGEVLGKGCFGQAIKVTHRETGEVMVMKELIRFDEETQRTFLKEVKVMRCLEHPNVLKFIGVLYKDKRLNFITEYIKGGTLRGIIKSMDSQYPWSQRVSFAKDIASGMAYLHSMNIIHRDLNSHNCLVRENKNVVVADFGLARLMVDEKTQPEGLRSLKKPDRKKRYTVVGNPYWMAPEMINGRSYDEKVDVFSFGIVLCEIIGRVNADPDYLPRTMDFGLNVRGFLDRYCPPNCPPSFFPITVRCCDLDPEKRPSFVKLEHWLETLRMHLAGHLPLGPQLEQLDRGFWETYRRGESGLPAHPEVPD
Sequence of Serine/threonine-protein kinase ULK2 (Homo sapiens) (Q8IYT8 whole entry): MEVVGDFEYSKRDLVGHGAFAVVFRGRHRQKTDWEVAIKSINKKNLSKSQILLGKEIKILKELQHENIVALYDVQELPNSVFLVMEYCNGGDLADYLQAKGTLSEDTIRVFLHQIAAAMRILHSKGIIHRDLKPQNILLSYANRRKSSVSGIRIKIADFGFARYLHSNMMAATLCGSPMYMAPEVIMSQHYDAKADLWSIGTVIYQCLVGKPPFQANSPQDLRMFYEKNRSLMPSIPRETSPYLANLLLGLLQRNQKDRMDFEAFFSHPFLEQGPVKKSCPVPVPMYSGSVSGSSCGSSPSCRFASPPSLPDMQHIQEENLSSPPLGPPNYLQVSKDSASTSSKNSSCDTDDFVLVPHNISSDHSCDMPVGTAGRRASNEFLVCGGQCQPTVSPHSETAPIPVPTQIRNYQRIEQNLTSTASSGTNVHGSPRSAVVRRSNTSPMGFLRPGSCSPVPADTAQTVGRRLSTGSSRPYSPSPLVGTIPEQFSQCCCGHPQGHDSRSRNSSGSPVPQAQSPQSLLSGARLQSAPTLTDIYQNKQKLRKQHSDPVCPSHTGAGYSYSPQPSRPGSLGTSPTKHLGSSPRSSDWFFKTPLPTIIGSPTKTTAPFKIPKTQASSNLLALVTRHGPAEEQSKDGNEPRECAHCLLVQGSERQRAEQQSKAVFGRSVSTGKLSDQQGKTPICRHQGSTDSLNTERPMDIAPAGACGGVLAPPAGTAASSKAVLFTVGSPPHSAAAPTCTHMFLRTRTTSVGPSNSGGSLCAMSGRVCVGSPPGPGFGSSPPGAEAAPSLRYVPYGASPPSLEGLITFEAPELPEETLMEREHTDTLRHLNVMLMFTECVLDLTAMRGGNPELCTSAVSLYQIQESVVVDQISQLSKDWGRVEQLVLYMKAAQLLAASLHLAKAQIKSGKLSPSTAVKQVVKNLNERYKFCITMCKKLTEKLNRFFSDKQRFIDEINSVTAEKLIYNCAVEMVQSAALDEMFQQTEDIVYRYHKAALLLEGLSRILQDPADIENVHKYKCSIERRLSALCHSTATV

`Cc1cc2c(-c3ccc(NC(=O)[C@H](N)CC(C)(C)C)cc3C)ccnc2[nH]1` was tested, and the IC50 [1] was > 10 µM (not active), the activity [2] was 122% and the activity [3] was 72%. The activity [4] was 100%, the activity [5] was 83% and the activity [6] was 96%. It also gave an activity [7] of 91%, an activity [8] of 87% and an activity [9] of 95%. The activity [10] was 95%, the activity [11] was 100% and the activity [12] was 114%. For the same compound, the activity [13] was 93%, the activity [14] was 104% and the activity [15] was 70%. It also gave an activity [16] of 72%, an activity [17] of 105% and an activity [18] of 87%. For the same compound, the activity [19] was 97%, the activity [20] was 96% and the activity [21] was 111%. For the same compound, the activity [22] was 93%, the activity [23] was 104% and the activity [24] was 98%. The activity [25] was 99% and the activity [26] was 94%.
